In patent publication EP4800013A1, “PARG INHIBITOR” (Shanghai Qilu Pharmaceutical Research and Development …, priority 2023, dated 2025):
pIC50: −log10 of the molar value. Read-outs that look alike come from different tables or passages of the source.

What was measured:
PARG = biological target: T1, PARG (Homo sapiens, UniProt Q86W56); test: Enzymatic inhibitory activity against PARG, HTRF assay; format: biochemical
T1 construct: made in house
Procedure, shortened: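 Purified PARG pre-incubated with compounds (top 10 µM, 3- to 5-fold dilutions, duplicates) 15 min at room temperature, then PARylated PARP1 substrate added for 60 min in Tris pH 7.4 buffer with DTT, EDTA/EGTA, KCl. HTRF (His-Tb/SA-XL665) read-out; IC50 by four-parameter logistic fit, normalised to DMSO and control-inhibitor wells.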

KURAMOCHI cells = test: Inhibition of proliferation of KURAMOCHI cells (CellTiter-Glo, intracellular ATP); format: cell-based; conditions: 168 h, incubated for 7 days, read-out: IC50 against KURAMOCHI cells
Procedure, shortened: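 KURAMOCHI cells seeded at 4000/well, incubated overnight, then treated with 9-point 1:4 compound series from 10 µM (0.5% DMSO) for 7 days at 37°C, 5% CO2. Viability read by CellTiter-Glo luminescence; inhibition normalised to medium-only (100%) and DMSO (0%) controls, IC50 from variable-slope four-parameter fit.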

[1] = HTRF, PARylated PARP1 protein as substrate, 60 minutes at room temperature, read-out: IC50 against PARG enzyme

T1 sequence (Q86W56 whole entry): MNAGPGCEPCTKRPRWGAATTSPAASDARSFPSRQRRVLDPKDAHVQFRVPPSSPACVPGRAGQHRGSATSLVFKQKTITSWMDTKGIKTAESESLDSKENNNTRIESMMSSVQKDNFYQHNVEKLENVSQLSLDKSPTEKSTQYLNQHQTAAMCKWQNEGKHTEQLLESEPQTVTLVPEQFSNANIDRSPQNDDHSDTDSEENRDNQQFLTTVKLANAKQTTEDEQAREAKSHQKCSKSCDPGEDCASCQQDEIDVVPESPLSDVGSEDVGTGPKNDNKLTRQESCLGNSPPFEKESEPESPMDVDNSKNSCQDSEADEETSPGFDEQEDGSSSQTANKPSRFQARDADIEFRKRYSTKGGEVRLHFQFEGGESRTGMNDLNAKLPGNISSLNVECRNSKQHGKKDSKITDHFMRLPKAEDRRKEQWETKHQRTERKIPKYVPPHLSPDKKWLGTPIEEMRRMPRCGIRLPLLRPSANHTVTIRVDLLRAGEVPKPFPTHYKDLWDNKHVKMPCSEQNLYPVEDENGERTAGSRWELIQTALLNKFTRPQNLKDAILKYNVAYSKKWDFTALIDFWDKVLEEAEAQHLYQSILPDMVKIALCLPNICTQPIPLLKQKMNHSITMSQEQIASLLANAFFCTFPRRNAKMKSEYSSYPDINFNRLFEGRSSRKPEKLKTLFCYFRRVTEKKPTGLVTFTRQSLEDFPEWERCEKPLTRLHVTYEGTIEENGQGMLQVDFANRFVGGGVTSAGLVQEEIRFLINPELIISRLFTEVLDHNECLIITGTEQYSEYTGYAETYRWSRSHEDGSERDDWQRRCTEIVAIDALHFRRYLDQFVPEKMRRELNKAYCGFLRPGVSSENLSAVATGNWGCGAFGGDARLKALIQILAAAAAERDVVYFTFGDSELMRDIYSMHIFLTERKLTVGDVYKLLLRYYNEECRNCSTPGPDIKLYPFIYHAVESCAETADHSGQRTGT

| SMILES | pIC50 (PARG; [1]) | pIC50 (KURAMOCHI cells) | pIC50 (PARG) |
| --- | --- | --- | --- |
| CN(C)C(=O)N1CCC(c2cc(S(=O)(=O)NC3(C#N)CC3)cc3c2ncn3-c2nnc(C(F)F)s2)CC1 [Compound 059C] | 8.19 | 7.70 |  |
| [2H]C([2H])([2H])OC(C)(C)C(=O)N1CCN(c2cc(S(=O)(=O)NC3(C#N)CC3)cc3c2n(CC=C)c(=O)n3-c2nnc(C(F)F)s2)CC1 [Compound 067LD] | 8.66 | 8.30 |  |
| C[C@H]1CN(c2cc(S(=O)(=O)NC3(C)CC3)cc3c2n2nc(C4CC4)nc2n3-c2nnc(C(F)F)s2)C[C@H](C)N1 [Compound 065Z] | 9.00 | 8.40 |  |
| CC(C)n1c(=O)n(-c2nnc(C(F)F)s2)c2cc(S(=O)(=O)NC3(C#N)CC3)cc(N3CCN(C(=O)N4CCCC4)CC3)c21 [Compound A047] |  | 7.89 | 7.82 |
| CC(C)Oc1nc2c(N3C[C@H](C)N[C@@H](C)C3)cc(S(=O)(=O)NC3(C#N)CC3)cc2n1-c1nnc(C(F)F)s1 [Compound 077H] | 8.52 | 8.30 |  |
| C[C@H]1CN(c2cc(S(=O)(=O)NC3(C)CC3)cc3c(-c4nnc(C(F)F)s4)c(C4CCCO4)nn23)C[C@H](C)N1 (some centres unmarked) [Compound 083A] | 8.68 | 8.40 |  |
| C=CCn1c(=O)n(-c2nnc(C(F)F)s2)c2cc(S(=O)(=O)NC3(C#N)CC3)cc(N3CCN(C(=O)C4(O)CCC4)CC3)c21 [Compound 073B] | 8.35 | 7.66 |  |
| C[C@H]1CN(c2cc(S(=O)(=O)NC3(C)CC3)cc3c2nc(C2COCCO2)n3-c2nnc(C(F)F)s2)C[C@H](C)N1 (some centres unmarked) [Compound 077N] | 8.47 | 8.10 |  |
| C=CCn1c(=O)n(-c2nnc(C(F)F)s2)c2cc(S(=O)(=O)NC3(C#N)CC3)cc(N3CCN(S(=O)(=O)C4(C)CC4)CC3)c21 [Compound 074B] | 8.57 | 8.52 |  |
| CC1(NS(=O)(=O)c2cc(N3CCNCC3)c3ncn(-c4nnc(C(F)F)s4)c3c2)CC1 [Compound B001] | 7.35 | 7.28 |  |
| C#CCn1c(=O)n(-c2nnc(C(F)F)s2)c2cc(S(=O)(=O)NC3(C#N)CC3)cc(N3CCN(C(=O)C(C)C)CC3)c21 [Compound 074K] | 8.72 | 8.10 |  |
| C[C@H]1CN(c2cc(S(=O)(=O)NC3(C)CC3)cc3c2nc(N2CCOCC2)n3-c2nnc(C(F)F)s2)C[C@H](C)N1 [Compound 077V] | 7.66 | 7.43 |  |
| COCc1nc2c(N3C[C@H](C)N[C@@H](C)C3)cc(S(=O)(=O)NC3(C)CC3)cc2n1-c1nnc(C(F)F)s1 [Compound 077T] | 7.56 | 7.46 |  |
| C=CCn1c(=O)n(-c2nnc(C(F)F)s2)c2cc(S(=O)(=O)NC3(C#N)CC3)cc(N3CCN(C(=O)C(C)C)CC3)c21 [Compound A051] | 8.12 | 7.92 |  |
| C[C@H]1CN(c2cc(S(=O)(=O)NC3(C)CC3)cc3c(-c4nnc(C(F)F)s4)c([C@H]4CCCO4)nn23)C[C@H](C)N1 [Compound 083A1] | 7.84 | 7.60 |  |
| C=CCn1c(=O)n(-c2nnc(C(F)F)s2)c2cc(S(=O)(=O)NC3(C#N)CC3)cc(N3CCN(C(=O)C4CCOC4)CC3)c21 (centres unmarked) [Compound 072B] | 7.80 | 7.28 |  |
| C=CCn1c(=O)n(-c2nnc(C(F)F)s2)c2cc(S(=O)(=O)NC3(C#N)CC3)cc(N3CCN(S(=O)(=O)C(C)C)CC3)c21 [Compound A052] | 8.80 | 8.70 |  |
| CN(C)C(=O)N1CCN(c2cc(S(=O)(=O)NC3(C)CC3)cc3c2nnn3-c2nnc(C(F)F)s2)CC1 [Compound C002] | 7.32 | 7.60 |  |
| C=CCn1c(=O)n(-c2nnc(C(F)F)s2)c2cc(S(=O)(=O)NC3(C#N)CC3)cc(N3CCN(C(=O)C(C)(C)C)CC3)c21 [Compound 067T] | 7.80 | 7.96 |  |
| Cn1c(=O)n(-c2nnc(C(F)F)s2)c2cc(S(=O)(=O)NC3(C)CC3)cc(N3CCN(C(=O)C(C)(C)F)CC3)c21 [Compound A029] | 8.52 | 8.10 |  |
| C=CCn1c(=O)n(-c2nnc(C(F)F)s2)c2cc(S(=O)(=O)NC3(C#N)CC3)cc(N3CCN(S(=O)(=O)N(C)C)CC3)c21 [Compound 074H] | 8.12 | 7.92 |  |
| C[C@H]1CN(c2cc(S(=O)(=O)NC3(C)CC3)cn3c(-c4nnc(C(F)F)s4)c(C4CCCO4)nc23)C[C@H](C)N1 (some centres unmarked) [Compound 080B] | 9.30 | 9.00 |  |
| COC(=O)N1CCN(c2cc(S(=O)(=O)NC3(C)CC3)cc3c2n(C)c(=O)n3-c2nnc(C(F)F)s2)CC1 [Compound A028] | 7.72 | 7.32 |  |
| C[C@H]1CN(c2cc(S(=O)(=O)NC3(C)CC3)cc3c2n2nc(Cl)nc2n3-c2nnc(C(F)F)s2)C[C@H](C)N1 [Compound 065X] | 9.30 | 8.40 |  |
| [2H]C([2H])([2H])OC1(C(=O)N2CCN(c3cc(S(=O)(=O)NC4(C#N)CC4)cc4c3n(CC=C)c(=O)n4-c3nnc(C(F)F)s3)CC2)CC1 [Compound 067ND] | 8.64 | 8.52 |  |

| SMILES | pIC50 (PARG; [1]) | pIC50 (KURAMOCHI cells) | pIC50 (PARG) |
| --- | --- | --- | --- |
| C[C@H]1CN(c2cc(S(=O)(=O)NC3(C)CC3)cc3c2n2nc(N4CCCC4=O)nc2n3-c2nnc(C(F)F)s2)C[C@H](C)N1 [Compound 084M] | 9.10 | 8.05 |  |
| C=CCn1c(=O)n(-c2nnc(C(F)F)s2)c2cc(S(=O)(=O)NC3(C#N)CC3)cc(N3CCN([S+]([O-])C(C)(C)C)CC3)c21 (centres unmarked) [Compound 074A-11] | 8.55 | 8.40 |  |
| N#CC1(NS(=O)(=O)c2cc(N3CCN(C(=O)N4CCCC4)CC3)c3ncn(-c4nnc(C(F)F)s4)c3c2)CC1 [Compound B013] | 7.67 | 7.28 |  |
| CN(C)C(=O)N1CCN(c2cc(S(=O)(=O)NC3(C)CC3)cc3c2[nH]c(=O)n3-c2nnc(C(F)F)s2)CC1 [Compound A004] | 7.97 | 7.10 |  |
| CCn1c(=O)n(-c2nnc(C(F)F)s2)c2cc(S(=O)(=O)NC3(C#N)CC3)cc(N3CCN(C(=O)N(C)C)CC3)c21 [Compound A043] | 8.10 | 7.96 |  |
| Cn1c(=O)n(-c2nnc(C(F)F)s2)c2cc(S(=O)(=O)NC3(CF)CC3)cc(N3CCNCC3)c21 [Compound A031] | 7.45 | 7.20 |  |
| C[C@H]1CN(c2cc(S(=O)(=O)NC3(C)CC3)cc3c2nnn3-c2nnc(C(F)F)s2)C[C@H](C)N1 [Compound 008B] | 8.02 | 8.05 |  |
| CC(C)C(=O)N1CCN(c2cc(S(=O)(=O)NC3(C#N)CC3)cc3c2ncn3-c2nnc(C(F)F)s2)CC1 [Compound B010] | 7.50 | 7.23 |  |
| C=CCn1c(=O)n(-c2nnc(C(F)F)s2)c2cc(S(=O)(=O)NC3(C#N)CC3)cc(N3CCN(C(=O)N4CCOCC4)CC3)c21 [Compound 067G] | 8.06 | 7.59 |  |
| [2H]C([2H])([2H])N(C(=O)N1CCN(c2cc(S(=O)(=O)NC3(C#N)CC3)cc3c2n(CC=C)c(=O)n3-c2nnc(C(F)F)s2)CC1)C([2H])([2H])[2H] [Compound A042] | 8.29 | 8.22 |  |
| C=CCn1c(=O)n(-c2nnc(C(F)F)s2)c2cc(S(=O)(=O)NC3(C#N)CC3)cc(N3CCN(C(=O)[C@@H](C)CC)CC3)c21 [Compound 067W2] | 7.88 | 7.96 |  |
| Cn1ccnc1N1CCN(c2cc(S(=O)(=O)NC3(C)CC3)cc3c2n(C)c(=O)n3-c2nnc(C(F)F)s2)CC1 [Compound A040] | 8.30 | 8.05 |  |
| CC(C)n1c(=O)n(-c2nnc(C(F)F)s2)c2cc(S(=O)(=O)NC3(C#N)CC3)cc(N3CCN(C(=O)C(C)(C)O)CC3)c21 [Compound A049] | 7.80 | 7.30 |  |
| CC(C)(F)C(=O)N1CCN(c2cc(S(=O)(=O)NC3(C#N)CC3)cc3c2ncn3-c2nnc(C(F)F)s2)CC1 [Compound B014] | 7.50 | 7.37 |  |
| CC(C)C(=O)N1CCN(c2cc(S(=O)(=O)NC3(C#N)CC3)cc3c2nc(OC2COC2)n3-c2nnc(C(F)F)s2)CC1 [Compound 057N] | 8.08 | 8.05 |  |
| C[C@H]1CN(c2cc(S(=O)(=O)NC3(C)CC3)cc3c(-c4nnc(C(F)F)s4)c([C@@H]4CCCO4)nn23)C[C@H](C)N1 [Compound 083A2] | 9.00 | 8.52 |  |
| CC(C)C(=O)N1CCN(c2cc(S(=O)(=O)NC3(C#N)CC3)cc3c2nc(OC2CC2)n3-c2nnc(C(F)F)s2)CC1 [Compound 057Q] | 8.29 | 8.15 |  |
| CC(C)C(=O)N1CCN(c2cc(S(=O)(=O)NC3(C#N)CC3)cc3c2n(C)c(=O)n3-c2nnc(C(F)F)s2)CC1 [Compound A014] | 7.91 | 7.43 |  |
| [2H]C([2H])([2H])C1(NS(=O)(=O)c2cc(N3C[C@H](C)N[C@@H](C)C3)c3c(c2)n(-c2nnc(C(F)F)s2)c2ncnn32)CC1 [Compound 065O] | 8.51 | 8.52 |  |
| COc1nc2c(N3CCN(C(=O)C(C)C)CC3)cc(S(=O)(=O)NC3(C#N)CC3)cc2n1-c1nnc(C(F)F)s1 [Compound B020] | 7.70 | 7.23 |  |
| C[C@H]1CN(c2cc(S(=O)(=O)NC3(C#N)CC3)cc3c2n2ncnc2n3-c2nnc(C(F)F)s2)C[C@H](C)N1 [Compound 065N] | 8.14 | 8.05 |  |
| CC(C)C(=O)N1CCN(c2cc(S(=O)(=O)NC3(C)CC3)cc3c2[nH]c(=O)n3-c2nnc(C(F)F)s2)CC1 [Compound A002] | 7.79 | 7.07 |  |
| Cc1nc2c(N3CCN(C(=O)N(C)C)CC3)cc(S(=O)(=O)NC3(C#N)CC3)cc2n1-c1nnc(C(F)F)s1 [Compound B021] | 7.60 | 7.29 |  |
| CC(C)n1c(=O)n(-c2nnc(C(F)F)s2)c2cc(S(=O)(=O)NC3(C#N)CC3)cc(N3CCN(C(=O)N(C)C)CC3)c21 [Compound A045] | 7.86 | 7.80 |  |
